From PubChem BioAssay AID1259407 (Chemical Carcinogenesis Research Information System (CCRIS), 2018)
Activity calls are given as the source filed them. How the calls were made is not given here.

System: CCRIS mutagenicity, Ames/micronucleus/aberration tests
Test: CCRIS mutagenicity studies
[1] = Test System: AMES SALMONELLA TYPHIMURIUM, Strain/Indicator: TA98, Metabolic Activation: HAMSTER, LIVER, S-9, AROCLOR 1254 (10%), Method: PREINCUBATION
[2] = Test System: AMES SALMONELLA TYPHIMURIUM, Strain/Indicator: TA98, Metabolic Activation: NONE, Method: PREINCUBATION
[3] = Test System: AMES SALMONELLA TYPHIMURIUM, Strain/Indicator: TA98, Metabolic Activation: RAT, LIVER, S-9, AROCLOR 1254 (10%), Method: PREINCUBATION
[4] = Test System: AMES SALMONELLA TYPHIMURIUM, Strain/Indicator: TA100, Metabolic Activation: HAMSTER, LIVER, S-9, AROCLOR 1254 (10%), Method: PREINCUBATION
[5] = Test System: AMES SALMONELLA TYPHIMURIUM, Strain/Indicator: TA100, Metabolic Activation: NONE, Method: PREINCUBATION
[6] = Test System: AMES SALMONELLA TYPHIMURIUM, Strain/Indicator: TA100, Metabolic Activation: RAT, LIVER, S-9, AROCLOR 1254 (10%), Method: PREINCUBATION
[7] = Test System: AMES SALMONELLA TYPHIMURIUM, Strain/Indicator: TA1535, Metabolic Activation: HAMSTER, LIVER, S-9, AROCLOR 1254 (10%), Method: PREINCUBATION
[8] = Test System: AMES SALMONELLA TYPHIMURIUM, Strain/Indicator: TA1535, Metabolic Activation: NONE, Method: PREINCUBATION
[9] = Test System: AMES SALMONELLA TYPHIMURIUM, Strain/Indicator: TA1535, Metabolic Activation: RAT, LIVER, S-9, AROCLOR 1254 (10%), Method: PREINCUBATION
[10] = Test System: AMES SALMONELLA TYPHIMURIUM, Strain/Indicator: TA100, Metabolic Activation: RAT, LIVER, S-9, AROCLOR 1254, Method: STANDARD PLATE
[11] = Test System: AMES SALMONELLA TYPHIMURIUM, Strain/Indicator: TA100, Metabolic Activation: NONE, Method: STANDARD PLATE

CC(C)COC(=O)c1ccccc1N
mutagenic call [1]: inactive; negative
mutagenic call [2]: inactive; negative
mutagenic call [3]: inactive; negative
mutagenic call [4]: inactive; negative
mutagenic call [5]: inactive; negative
mutagenic call [6]: inactive; negative
mutagenic call [7]: inactive; negative
mutagenic call [8]: inactive; negative
mutagenic call [9]: inactive; negative
mutagenic call (Test System: AMES SALMONELLA TYPHIMURIUM, Strain/Indicator: TA1537, Metabolic Activation: HAMSTER, LIVER, S-9, AROCLOR 1254 (10%), Method: PREINCUBATION): inactive; negative
mutagenic call (Test System: AMES SALMONELLA TYPHIMURIUM, Strain/Indicator: TA1537, Metabolic Activation: NONE, Method: PREINCUBATION): inactive; negative
mutagenic call (Test System: AMES SALMONELLA TYPHIMURIUM, Strain/Indicator: TA1537, Metabolic Activation: RAT, LIVER, S-9, AROCLOR 1254 (10%), Method: PREINCUBATION): inactive; negative

Cl/C=C(\Cl)COCCCl
mutagenic call (Test System: AMES SALMONELLA TYPHIMURIUM, Strain/Indicator: TA100, Metabolic Activation: RAT, LIVER, S-9, 3-METHYLCHOLANTHRENE, Method: STANDARD PLATE): inactive; negative
mutagenic call [10]: active; positive
mutagenic call (Test System: AMES SALMONELLA TYPHIMURIUM, Strain/Indicator: TA100, Metabolic Activation: RAT, LIVER, S-9, PHENOBARBITAL, Method: STANDARD PLATE): active; positive
mutagenic call (Test System: AMES SALMONELLA TYPHIMURIUM, Strain/Indicator: TA100, Metabolic Activation: RAT, LIVER, S-9, Method: STANDARD PLATE): inactive; negative

OCC(Cl)(Cl)Cl
mutagenic call (Test System: AMES SALMONELLA TYPHIMURIUM, Strain/Indicator: TA100, Metabolic Activation: NONE, Method: BAG VAPORIZATION): inactive; negative
mutagenic call (Test System: AMES SALMONELLA TYPHIMURIUM, Strain/Indicator: TA100, Metabolic Activation: RAT, LIVER, S-9, AROCLOR 1254, Method: BAG VAPORIZATION): inactive; negative

Oc1cccc(Nc2ccccc2)c1
mutagenic call (Test System: AMES SALMONELLA TYPHIMURIUM, Strain/Indicator: TA97, Metabolic Activation: HAMSTER, LIVER, S-9, AROCLOR 1254 (10%), Method: PREINCUBATION): inactive; negative
mutagenic call (Test System: AMES SALMONELLA TYPHIMURIUM, Strain/Indicator: TA97, Metabolic Activation: HAMSTER, LIVER, S-9, AROCLOR 1254 (30%), Method: PREINCUBATION): inactive; negative
mutagenic call (Test System: AMES SALMONELLA TYPHIMURIUM, Strain/Indicator: TA97, Metabolic Activation: NONE, Method: PREINCUBATION): inactive; negative
mutagenic call (Test System: AMES SALMONELLA TYPHIMURIUM, Strain/Indicator: TA97, Metabolic Activation: RAT, LIVER, S-9, AROCLOR 1254 (10%), Method: PREINCUBATION): inactive; negative
mutagenic call (Test System: AMES SALMONELLA TYPHIMURIUM, Strain/Indicator: TA97, Metabolic Activation: RAT, LIVER, S-9, AROCLOR 1254 (30%), Method: PREINCUBATION): inactive; negative
mutagenic call [1]: inactive; negative
mutagenic call (Test System: AMES SALMONELLA TYPHIMURIUM, Strain/Indicator: TA98, Metabolic Activation: HAMSTER, LIVER, S-9, AROCLOR 1254 (30%), Method: PREINCUBATION): inactive; negative
mutagenic call [2]: inactive; negative
mutagenic call [3]: inactive; negative
mutagenic call (Test System: AMES SALMONELLA TYPHIMURIUM, Strain/Indicator: TA98, Metabolic Activation: RAT, LIVER, S-9, AROCLOR 1254 (30%), Method: PREINCUBATION): inactive; negative
mutagenic call [4]: inactive; negative
mutagenic call (Test System: AMES SALMONELLA TYPHIMURIUM, Strain/Indicator: TA100, Metabolic Activation: HAMSTER, LIVER, S-9, AROCLOR 1254 (30%), Method: PREINCUBATION): inactive; negative
mutagenic call [5]: inactive; negative
mutagenic call [6]: inactive; negative
mutagenic call (Test System: AMES SALMONELLA TYPHIMURIUM, Strain/Indicator: TA100, Metabolic Activation: RAT, LIVER, S-9, AROCLOR 1254 (30%), Method: PREINCUBATION): inactive; negative
mutagenic call [7]: inactive; negative
mutagenic call (Test System: AMES SALMONELLA TYPHIMURIUM, Strain/Indicator: TA1535, Metabolic Activation: HAMSTER, LIVER, S-9, AROCLOR 1254 (30%), Method: PREINCUBATION): inactive; negative
mutagenic call [8]: inactive; negative
mutagenic call [9]: inactive; negative
mutagenic call (Test System: AMES SALMONELLA TYPHIMURIUM, Strain/Indicator: TA1535, Metabolic Activation: RAT, LIVER, S-9, AROCLOR 1254 (30%), Method: PREINCUBATION): inactive; negative

O=[N+]([O-])c1ccc(N=Nc2ccc(N(CCO)CCO)cc2)c([N+](=O)[O-])c1
mutagenic call (Test System: AMES SALMONELLA TYPHIMURIUM, Strain/Indicator: TA98, Metabolic Activation: NONE, Method: STANDARD PLATE): active; positive
mutagenic call (Test System: AMES SALMONELLA TYPHIMURIUM, Strain/Indicator: TA98, Metabolic Activation: RAT, LIVER, S-9, AROCLOR 1254, Method: STANDARD PLATE): active; positive
mutagenic call [11]: active; positive
mutagenic call [10]: active; positive
mutagenic call (Test System: AMES SALMONELLA TYPHIMURIUM, Strain/Indicator: TA1535, Metabolic Activation: NONE, Method: STANDARD PLATE): active; positive
mutagenic call (Test System: AMES SALMONELLA TYPHIMURIUM, Strain/Indicator: TA1535, Metabolic Activation: RAT, LIVER, S-9, AROCLOR 1254, Method: STANDARD PLATE): active; positive
mutagenic call (Test System: AMES SALMONELLA TYPHIMURIUM, Strain/Indicator: TA1537, Metabolic Activation: NONE, Method: STANDARD PLATE): active; positive
mutagenic call (Test System: AMES SALMONELLA TYPHIMURIUM, Strain/Indicator: TA1537, Metabolic Activation: RAT, LIVER, S-9, AROCLOR 1254, Method: STANDARD PLATE): active; positive
mutagenic call (Test System: AMES SALMONELLA TYPHIMURIUM, Strain/Indicator: TA1538, Metabolic Activation: NONE, Method: STANDARD PLATE): active; positive
mutagenic call (Test System: AMES SALMONELLA TYPHIMURIUM, Strain/Indicator: TA1538, Metabolic Activation: RAT, LIVER, S-9, AROCLOR 1254, Method: STANDARD PLATE): active; positive
mutagenic call (Test System: CHINESE HAMSTER V-79, Strain/Indicator: V-79 (HGPRT)/6-THIOGUANINE, Metabolic Activation: RAT, LIVER, S-9, AROCLOR 1254): active; positive
mutagenic call (Test System: CHINESE HAMSTER V-79, Strain/Indicator: V-79/6-THIOGUANINE, Metabolic Activation: NONE): inactive; negative
mutagenic call (Test System: UDS RAT HEPATOCYTES, Strain/Indicator: THY INCORP, Metabolic Activation: NONE, Method: AUTORADIOGRAPHY): inactive; negative

Cc1ccc2cc(C)c3c4c(ccc3c2c1)[C@H](O)[C@@H](O)[C@H]1O[C@@H]41
mutagenic call [11]: active; positive

O=[N+]([O-])CBr
mutagenic call (End Point: In vitro micronucleus, Test System: Human lymphoblastoid TK6 cells, Metabolic Activation: None): inactive; negative
mutagenic call (End Point: In vitro micronucleus, Test System: Human peripheral blood lymphocytes, Metabolic Activation: None): inactive; negative
mutagenic call (Test System: Ames Salmonella typhimurium, Strain/Indicator: RSJ100, Metabolic Activation: None, Method: Standard plate): inactive; negative
mutagenic call (Test System: Ames Salmonella typhimurium, Strain/Indicator: RSJ100, Metabolic Activation: Rat, Liver, S-9, Aroclor, Method: Standard plate): inactive; negative
mutagenic call (Test System: Ames Salmonella typhimurium, Strain/Indicator: TA98, Metabolic Activation: None, Method: Standard plate): inactive; negative
mutagenic call (Test System: Ames Salmonella typhimurium, Strain/Indicator: TA98, Metabolic Activation: Rat, Liver, S-9, Aroclor, Method: Standard plate): inactive; negative
mutagenic call (Test System: Ames Salmonella typhimurium, Strain/Indicator: TA100, Metabolic Activation: None, Method: Standard plate): active; positive
mutagenic call (Test System: Ames Salmonella typhimurium, Strain/Indicator: TA100, Metabolic Activation: Rat, Liver, S-9, Aroclor, Method: Standard plate): active; positive
mutagenic call (Test System: Ames Salmonella typhimurium, Strain/Indicator: TA104, Metabolic Activation: None, Method: Standard plate): inactive; negative
mutagenic call (Test System: Ames Salmonella typhimurium, Strain/Indicator: TPT100, Metabolic Activation: None, Method: Standard plate): inactive; negative
